Source: patent US7557092B2, “Purinergic modulation of smell” (University of Utah Research Foundation, priority 2002, dated 2009)
Where two headings read alike, the source gives them in different places.

Tests used:
[1] = tested on: ORNs in mouse olfactory epithelium slices; assay: confocal calcium imaging of fluo-4 AM loaded olfactory epithelium slices, ORNs; type: cell-based; conditions: for evoked calcium transients in olfactory epithelial slices: superfused onto olfactory epithelial slices (ORNs and sustentacular cells); for agonist-evoked calcium transients in ORNs: 10 μM agonist superfused onto slice
Text: (§1) To study the effects of ATP on odor responses, acutely prepared slices of mouse olfactory epithelium were used. Confocal imaging of fluo-4 AM-loaded olfactory epithelium slices allows simultaneous recording from identified structures within the olfactory epithelium, i.e., both ORNs and sustentacular cells. […] The difference in robustness can be due to poor access to the ATP stimulus: odorant receptors are on the cilia of the ORNs, which extend beyond the outer edge of the olfactory epithelium, whereas purinergic receptors are located deeper within the olfactory epithelium. […] The latency of activation for the ATP-evoked calcium transient was shorter in the ORN (FIG. 3B2, solid up arrowhead) than in sustentacular cells (FIG. 3B3, open down arrowhead). Collectively, this was consistent with ORNs expressing the faster P2X receptors, and the sustentacular cells expressing the slower G-protein coupled P2Y receptors.
(§2) To prepare olfactory epithelium slices, neonatal mice (postnatal day 0-6) were quickly decapitated, and the skin and lower jaw were removed. Tissue was mounted in ice cold Ringers onto a vibratome-cutting block and 300 μm slices were made. Primary cultures of mouse ORNs were made using the same protocol and culture conditions as described for rat olfactory receptor neurons (Vargas and Lucero, 1999a). Briefly, tissue was placed in divalent cation-free Ringers containing 10 mg/ml bovine serum albumin, 1 mg/ml deoxyribonuclease II and 44 U/ml dispase, incubated at 37° C. for 45 min. The tissue was washed, triturated, and filtered through a […] mesh and […] cells were plated onto concanavalin A-coated coverslips and allowed to settle for 20 min. An additional 1.5 ml of culture medium was added (DMEM supplemented with […] ascorbic acid, 1X insulin-transferrin-seleniumX (GIBCO BRL), 2 mM glutamine, 100 U/ml penicillin G and […] streptomycin).
(§3) [Ca^2+]i was determined using confocal imaging of fluo-4 AM (18 μM; Molecular Probes) loaded cells and slices. Cells or slices were placed in a laminar flow chamber (Warner Instruments) and perfused continuously with Ringers solution at a flow rate of 1.5-2.0 ml/min. Ringers contained (mM): 140 NaCl, 5 KCl, 1 MgCl2, 2 CaCl2, 10 HEPES, 10 glucose, […] and 400 nM tetrodotoxin. Test solutions were applied using bath exchange and a small volume loop injector (200 μl). A Zeiss LSM 510 confocal laser scanning system was used for data collection and analysis. Time series experiments were performed collecting 1400×700 pixel images at 0.2-0.4 Hz. The fluorometric signals obtained are expressed as relative fluorescence change, ΔF/F═(F−F0)/F0, where F0 is the basal fluorescence level. Increases in F greater than 10% above baseline noise were considered responses.

[2] = tested on: sustentacular cells in mouse olfactory epithelium slices; assay: confocal calcium imaging of fluo-4 AM loaded olfactory epithelium slices, sustentacular cells; type: cell-based; conditions: for agonist-evoked calcium transients in sustentacular cells: 10 μM agonist superfused onto slice
Text: as §1, §2, §3

P2Y11 = target: T1, P2Y11 (Homo sapiens, UniProt Q96G91); conditions: cDNA from Human placenta; cited from earlier work
T1 sequence (Q96G91 1-374): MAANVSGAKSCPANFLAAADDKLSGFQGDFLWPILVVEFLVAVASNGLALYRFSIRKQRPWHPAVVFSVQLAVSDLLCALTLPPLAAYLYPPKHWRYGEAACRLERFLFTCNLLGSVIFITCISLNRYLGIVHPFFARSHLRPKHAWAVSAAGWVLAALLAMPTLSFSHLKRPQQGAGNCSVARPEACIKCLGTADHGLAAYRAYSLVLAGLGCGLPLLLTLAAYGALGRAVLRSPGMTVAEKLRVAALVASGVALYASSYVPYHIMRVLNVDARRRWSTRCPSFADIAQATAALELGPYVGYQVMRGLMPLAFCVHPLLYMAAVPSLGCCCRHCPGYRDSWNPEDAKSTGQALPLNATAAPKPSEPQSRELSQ

P2Y1 [3] = target: P2Y1 (Meleagris gallopavo, UniProt P49652); conditions: cDNA from Turkey brain; cited from earlier work
Sequence of P2Y1 (Meleagris gallopavo, UniProt P49652) (P49652 whole entry): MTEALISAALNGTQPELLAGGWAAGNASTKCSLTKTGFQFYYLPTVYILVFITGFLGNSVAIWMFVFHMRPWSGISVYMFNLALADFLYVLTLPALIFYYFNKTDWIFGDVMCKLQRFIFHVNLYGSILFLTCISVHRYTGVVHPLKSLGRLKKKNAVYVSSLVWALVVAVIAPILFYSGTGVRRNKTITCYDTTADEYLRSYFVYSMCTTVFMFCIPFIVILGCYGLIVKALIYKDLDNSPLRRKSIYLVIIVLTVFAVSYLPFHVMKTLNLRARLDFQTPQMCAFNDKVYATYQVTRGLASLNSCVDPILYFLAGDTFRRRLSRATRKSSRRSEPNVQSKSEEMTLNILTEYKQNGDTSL

P2Y1 [4] = target: P2Y1 (Gallus gallus, UniProt P34996); conditions: cDNA from Chick brain; cited from earlier work
Sequence of P2Y1 (Gallus gallus, UniProt P34996) (P34996 whole entry): as the sequence (P49652 whole entry) above, with S28T counted along it

P2X7 = target: T2, P2X7 (Rattus norvegicus, UniProt Q64663); conditions: cDNA from Rat macrophage and brain; cited from earlier work
T2 construct: host or cells: Xenopus oocytes
T2 sequence (Q64663 1-595): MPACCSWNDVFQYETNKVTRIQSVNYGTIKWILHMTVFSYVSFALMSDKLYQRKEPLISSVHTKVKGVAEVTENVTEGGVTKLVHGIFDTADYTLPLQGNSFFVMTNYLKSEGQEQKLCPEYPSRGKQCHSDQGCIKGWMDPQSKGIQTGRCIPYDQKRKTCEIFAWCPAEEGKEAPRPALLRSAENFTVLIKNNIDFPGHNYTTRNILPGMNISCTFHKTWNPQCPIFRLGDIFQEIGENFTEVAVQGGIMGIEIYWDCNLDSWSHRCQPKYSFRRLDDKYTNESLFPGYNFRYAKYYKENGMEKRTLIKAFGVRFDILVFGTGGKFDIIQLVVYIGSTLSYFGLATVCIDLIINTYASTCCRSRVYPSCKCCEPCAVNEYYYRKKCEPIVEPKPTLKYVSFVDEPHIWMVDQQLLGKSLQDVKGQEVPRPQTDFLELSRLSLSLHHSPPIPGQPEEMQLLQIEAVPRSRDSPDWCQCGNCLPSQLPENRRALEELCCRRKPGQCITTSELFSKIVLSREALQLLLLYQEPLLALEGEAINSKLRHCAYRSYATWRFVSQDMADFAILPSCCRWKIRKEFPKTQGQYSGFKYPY

[5] = tested on: odor responses of mouse ORNs in olfactory epithelium slices; assay: co-application of odor and purinergic receptor agonist, calcium transients in olfactory epithelium slices; type: cell-based
P2Y1 [6] = target: P2Y1 (Rattus norvegicus, UniProt P49651); conditions: cited from earlier work
Sequence of P2Y1 (Rattus norvegicus, UniProt P49651) (P49651 whole entry): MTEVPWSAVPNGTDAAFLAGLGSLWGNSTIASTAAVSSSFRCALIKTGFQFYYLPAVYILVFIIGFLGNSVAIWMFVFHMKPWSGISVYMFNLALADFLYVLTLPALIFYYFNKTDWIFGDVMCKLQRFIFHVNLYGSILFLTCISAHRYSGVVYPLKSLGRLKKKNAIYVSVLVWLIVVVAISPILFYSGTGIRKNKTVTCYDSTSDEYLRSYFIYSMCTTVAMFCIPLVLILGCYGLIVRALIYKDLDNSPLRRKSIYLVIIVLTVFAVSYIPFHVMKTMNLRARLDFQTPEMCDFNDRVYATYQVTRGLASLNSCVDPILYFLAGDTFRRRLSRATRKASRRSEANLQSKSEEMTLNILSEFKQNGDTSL

P2X2 = target: T3, P2X2 (Rattus norvegicus, UniProt P49653); conditions: cDNA from Rat PC12 cells; cited from earlier work
T3 construct: host or cells: Xenopus oocytes
T3 sequence (P49653 1-472): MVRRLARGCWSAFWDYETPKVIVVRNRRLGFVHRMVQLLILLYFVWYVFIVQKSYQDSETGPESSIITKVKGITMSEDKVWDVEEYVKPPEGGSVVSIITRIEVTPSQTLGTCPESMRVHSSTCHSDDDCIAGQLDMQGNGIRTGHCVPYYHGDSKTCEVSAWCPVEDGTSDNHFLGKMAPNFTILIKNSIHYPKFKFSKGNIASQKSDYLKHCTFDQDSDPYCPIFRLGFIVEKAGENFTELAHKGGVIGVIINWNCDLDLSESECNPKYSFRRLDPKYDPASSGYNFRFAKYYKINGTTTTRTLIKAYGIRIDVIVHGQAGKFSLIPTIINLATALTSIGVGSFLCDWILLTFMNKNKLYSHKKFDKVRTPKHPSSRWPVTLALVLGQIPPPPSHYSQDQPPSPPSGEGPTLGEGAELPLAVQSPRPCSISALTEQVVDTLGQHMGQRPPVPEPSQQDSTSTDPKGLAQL

P2X5 = target: T4, P2X5 (Rattus norvegicus, UniProt P51578); conditions: cDNA from Rat ganglia; cited from earlier work
T4 construct: host or cells: Xenopus oocytes
T4 sequence (P51578 1-455): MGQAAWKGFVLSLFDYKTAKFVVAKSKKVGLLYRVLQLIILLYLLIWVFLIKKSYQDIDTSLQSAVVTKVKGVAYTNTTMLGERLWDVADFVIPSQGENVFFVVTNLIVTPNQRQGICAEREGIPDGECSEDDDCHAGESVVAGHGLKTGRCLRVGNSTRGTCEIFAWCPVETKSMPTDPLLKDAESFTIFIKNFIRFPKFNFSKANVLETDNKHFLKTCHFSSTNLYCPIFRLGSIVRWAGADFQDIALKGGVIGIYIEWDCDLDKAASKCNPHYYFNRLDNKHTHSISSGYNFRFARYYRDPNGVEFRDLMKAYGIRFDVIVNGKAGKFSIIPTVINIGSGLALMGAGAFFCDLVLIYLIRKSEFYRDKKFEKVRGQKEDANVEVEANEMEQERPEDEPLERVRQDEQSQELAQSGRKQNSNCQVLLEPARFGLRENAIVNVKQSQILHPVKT

P2X4 = target: T5, P2X4 (Rattus norvegicus, UniProt P51577); conditions: cDNA from Rat superior cervical ganglion; cited from earlier work
T5 construct: host or cells: Xenopus oocytes
T5 sequence (P51577 1-388): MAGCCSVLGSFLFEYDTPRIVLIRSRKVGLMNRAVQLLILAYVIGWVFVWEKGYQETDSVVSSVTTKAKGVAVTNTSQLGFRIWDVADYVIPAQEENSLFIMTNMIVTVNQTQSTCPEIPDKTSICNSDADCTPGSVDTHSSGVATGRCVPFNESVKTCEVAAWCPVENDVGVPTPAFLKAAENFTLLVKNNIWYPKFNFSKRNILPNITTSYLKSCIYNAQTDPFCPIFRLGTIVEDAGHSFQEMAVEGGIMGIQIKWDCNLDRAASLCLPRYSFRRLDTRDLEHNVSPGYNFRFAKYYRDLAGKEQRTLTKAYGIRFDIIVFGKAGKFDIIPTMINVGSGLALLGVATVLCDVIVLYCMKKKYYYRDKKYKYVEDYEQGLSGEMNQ

P2X6 = target: T6, P2X6 (Rattus norvegicus, UniProt P51579); conditions: cDNA from Rat superior cervical ganglion; cited from earlier work
T6 construct: host or cells: Xenopus oocytes
T6 sequence (P51579 whole entry): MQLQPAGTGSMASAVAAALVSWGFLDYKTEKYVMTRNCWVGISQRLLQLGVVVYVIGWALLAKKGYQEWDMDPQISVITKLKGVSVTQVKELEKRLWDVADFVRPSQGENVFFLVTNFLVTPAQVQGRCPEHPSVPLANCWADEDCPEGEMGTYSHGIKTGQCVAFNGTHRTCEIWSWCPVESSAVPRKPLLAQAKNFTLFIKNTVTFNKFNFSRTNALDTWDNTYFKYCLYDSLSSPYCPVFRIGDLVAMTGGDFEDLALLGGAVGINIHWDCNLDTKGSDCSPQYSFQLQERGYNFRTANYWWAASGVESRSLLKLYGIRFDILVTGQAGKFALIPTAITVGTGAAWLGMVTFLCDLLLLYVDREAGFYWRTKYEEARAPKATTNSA

[7] = sustentacular cells, PPADS, n=30
[8] = ORNs, PPADS 25 μm, reversible, n=5
[9] = co-application of 10 μM βγ-methylene ATP and odor, 2/16 cells

Nc1ncnc2c1ncn2[C@@H]1O[C@H](COP(=O)(O)O)[C@@H](O)[C@H]1O [AMP]
evoked calcium transients in olfactory epithelial slices [1]: never observed

Nc1ncnc2c1ncn2[C@@H]1O[C@H](CO)[C@@H](O)[C@H]1O [Adenosine]
evoked calcium transients in olfactory epithelial slices [1]: never observed

Cc1nc(N=Nc2ccc(S(=O)(=O)O)cc2S(=O)(=O)O)c(COP(=O)(O)O)c(C=O)c1O [PPADS, pyridoxalphosphate-6-azophenyl-2′,4′-disulfonic acid]
block of ATP-evoked Ca2+ transients [2, 7]: 82±2% | block of UTP-evoked Ca2+ transients [2, 7]: 76±2% | block of ATP-evoked calcium transients [1, 8]: 87±5% | block of UTP-evoked calcium transients [1, 8]: 92±3%

O=c1ccn([C@@H]2O[C@H](COP(=O)(O)OP(=O)(O)O)[C@@H](O)[C@H]2O)c(=O)[nH]1 [UDP]
Agonist activity (P2Y11): (UTP, UDP inactive)

O=c1ccn([C@@H]2O[C@H](COP(=O)(O)OP(=O)(O)OP(=O)(O)O)[C@@H](O)[C@H]2O)c(=O)[nH]1 [UTP]
Agonist activity (P2Y11): (UTP, UDP inactive) | Agonist activity (P2Y1 [3]): 2MeSATP > ADP > ATP; (UTP inactive) | Agonist activity (P2Y1 [4]): 2MeSATP > ATP > ADP; (UTP inactive) | Agonist activity (P2X7): BzATP > ATP > 2MeSATP > ADP; UTP inactive | effect on co-application evoked calcium transient ([5]; P2Y selective agonists co-applied with odor): suppressed the co-application evoked calcium transient | agonist-evoked calcium transients in sustentacular cells [2]: evoked calcium transients | Agonist activity (P2Y1 [6]; cDNA from Rat ileal myocytes): (UTP inactive) | agonist-evoked calcium transients in ORNs [1]: evoked calcium transients

Nc1ncnc2c1ncn2[C@@H]1O[C@H](COP(=O)(O)CP(=O)(O)OP(=O)(O)O)[C@@H](O)[C@H]1O [α,β-meATP, α,β-methylene ATP]
Agonist activity (P2X2): 2MeSATP > ATP; α,β-meATP inactive | Agonist activity (P2X5): α,β-meATP inactive | Agonist activity (P2X4): ATP; α,β-meATP inactive | Agonist activity (P2X6): ATP > 2MeSATP > ADP; α,β-meATP inactive | Agonist activity (P2Y1 [6]; cDNA from Rat insulinoma cells): (α,β-meATP inactive)

Nc1ncnc2c1ncn2[C@@H]1O[C@H](COP(=O)(O)OP(=O)(O)CP(=O)(O)O)[C@@H](O)[C@H]1O [βγ-methylene ATP, β,γ-methylene ATP]
ORNs with enhanced calcium transient amplitude ([5]; co-application of 10 μM βγ-MeATP and odors, 2 slices): 2/16 | ORNs with suppressed calcium transient amplitude ([5]; co-application of 10 μM βγ-MeATP and odors, 6 slices): 12/16 | change of amplitude in cells with no effect [5, 9]: 15±1% | enhancement of calcium transient amplitude [5, 9]: 168±44% | suppression of Ca2+ transient amplitude ([5]; co-application of 10 μM βγ-methylene ATP and odor, 2/16 cells as printed): 42±5% | reduction in the average amplitude of the Ca2+ transient, overall ([5]; co-application of 10 μM βγ-methylene ATP and odor, 16/16 cells): 25±11% | agonist-evoked calcium transients in sustentacular cells [2]: not the sustentacular cells | agonist-evoked calcium transients in ORNs [1]: responded
